Columns and labels:
cockroach larvae = conditions: 24 hours; 25° C.
[1] = test system: final instar larvae of the diamondback moth (Plutella xylostella); assay: Repellent and emergence-inhibition effect on the final instar larvae of diamondback moths; assay type: in vivo; set-up: key to Extent of ingestion: -: no ingestion; ±: very little ingestion; +: some ingestion; ++: considerable ingestion; conditions: 72 hours; for pest or weed control at 500 ppm: Plutella xylostella, read-out: Emergence-inhibition rate (%); for Extent of ingestion: radish leaves dipped in 500 ppm
From the text: (§1) In the following Examples, wettable powders prepared according to the procedures of Example 4 were used, each powder containing 50% by weight of the active compound of this invention.
Leaves of the Japanese radish (Raphanus sativus) were dipped for 30 seconds into a liquid containing 500 ppm of one of the compounds shown in Table 9. After air-drying the leaves, each leaf was placed into a plastic icecream cup (diameter 8 cm) and 15 final instar larvae of the diamondback moth (Plutella xylostella) were placed into each cup. Each test was conducted in duplicate and the results were averaged.

[2] = test system: third instar larvae of the tobacco cutworm; assay: Repellent action against the third instar larvae of the tobacco cutworm; assay type: in vivo; set-up: key: -: no ingestion; ±: very little ingestion; +: some ingestion; ++: considerable ingestion; conditions: cabbage leaves dipped in 500 ppm, 72 hours
From the text: as §1
Cabbage leaves were dipped for 30 seconds in an aqueous suspension containing 500 ppm of one of the active compounds shown in Table 6. After air-drying, each leaf was placed into a plastic receptacle having a diameter of 8 cm and the third instar larvae (10 per receptacle) of the tobacco cutworm were released onto the leaves. After 72 hours, the extent of ingestion of the leaves was measured, using two receptacles for each test compound. The results are shown in Table 6, using the following notation (which is also employed, with the same meaning, in following Table 9): […]

Sphaerotheca fuliginea = assay: Effect on powdery mildew in cucumbers; assay type: in vivo; conditions: cucumber powdery mildew; 500 ppm; 10 days
Description: as §1
Cucumber seedlings (variety Sagamihanshiro), planted two per 12 cm diameter pot, were used as host plants at the stage when the first leaf was fully grown and open. Each test group of three pots was treated with one of the active compounds shown in Table 5 by spraying an aqueous suspension containing 500 ppm of the active compound onto the plants at the rate of 20 ml per 3 pots. After air-drying the plants, the host plants were inoculated with the microorganism Sphaerotheca fuliginea by brushing already infected cucumber leaves with a small brush and letting the microorganism fall onto the host plants. The inoculated plants were kept in a greenhouse at 24°-26° C. for 10 days. At the end of this time, the percentage diseased area was measured.

guppies = assay: Toxicity to guppies; assay type: in vivo; conditions: LC50 after 48 hours classified
Description: In this example the toxicity of the compounds of the invention towards guppies was estimated and is compared with that of corresponding compounds as disclosed and claimed in our co-pending U.S. Application No. 910,117 filed May 30, 1978. The LC50 was determined after 48 hours and the toxicity to guppies was classified into the rankings (i), (ii) and (iii) according to the following classification scheme: […]

Phytophthora infestans = assay type: in vivo; conditions: tomato late blight; 500 ppm; after 5 days; average per leaf

SMILES	Diseased area (%) (Sphaerotheca fuliginea)	Toxicity ranking (guppies)	Diseased area (%) (Phytophthora infestans)	further results
CN(CCOc1ccc(Cl)cc1)c1ncnc2ccccc12 [compound 19, 4-{N-[2-(4-chlorophenoxy)ethyl]-N-methylamino}quinazoline]	–	–	–	Mortality rate (%), 0.5mg test cpd/10 cockroaches/bottle (cockroach larvae): 85%; Mortality rate (%), 1mg test cpd/10 cockroaches/bottle (cockroach larvae): 100%; pest or weed control at 500 ppm [1]: 80%; Extent of ingestion [1]: ±; Extent of ingestion [2]: +
CCN(CCOc1ccccc1C(C)C)c1ncnc2ccccc12 [compound 27, 4-{N-ethyl-N-[2-(2-isopropylphenoxy)ethyl]amino}quinazoline]	0%	–	–	–
Cc1ccc(OCCNc2ncnc3ccccc23)c(C)c1 [Compound C, 4-{N-[2-(2,4-dimethylphenoxy)ethyl]amino}quinazoline, reference compound]	–	iii (all fish dead at 0.5 ppm)	–	–
Cc1cc(Cl)ccc1OCCNc1ncnc2ccccc12 [Compound D, 4-{N-[2-(4-chloro-2-methylphenoxy)ethyl]amino}quinazoline, reference compound]	–	iii (all fish dead at 0.5 ppm)	–	–
CCN(CCOc1ccccc1)c1ncnc2ccccc12 [compound 5, 4-[N-ethyl-N-(2-phenoxyethyl)amino]quinazoline]	6%	–	–	–
Cc1ccc(OCCN(c2ncnc3ccccc23)C2CCCCC2)c(C)c1 [compound 37, 4-{N-cyclohexyl-N-[2-(2,4-dimethylphenoxy)ethyl]amino}quinazoline]	–	–	–	pest or weed control at 500 ppm [1]: 60%; Extent of ingestion [1]: ± to +
CC(C)c1ccccc1OCCN(c1ncnc2ccccc12)C(C)C [compound 29, 4-{N-isopropyl-N-[2-(2-isopropylphenoxy)ethyl]amino}quinazoline]	–	–	–	pest or weed control at 500 ppm [1]: 60%; Extent of ingestion [1]: ± to +
CN(CCOc1cccc(Cl)c1)c1ncnc2ccccc12 [compound 23, 4-{N-[2-(3-chlorophenoxy)ethyl]-N-methylamino}quinazoline]	–	–	–	Mortality rate (%), 0.5mg test cpd/10 cockroaches/bottle (cockroach larvae): 85%; Mortality rate (%), 1mg test cpd/10 cockroaches/bottle (cockroach larvae): 100%
C=CCN(CCOc1ccccc1C)c1ncnc2ccccc12 [Compound No. 8, 4-{N-allyl-N-[2-(2-methylphenoxy)ethyl]amino}quinazoline]	0%	ii (all fish dead at 10 ppm but alive at 0.5 ppm)	5%	–
CCCN(CCOc1ccc(C)cc1C)c1ncnc2ccccc12 [compound 33, 4-{N-[2-(2,4-dimethylphenoxy)ethyl]-N-propylamino}quinazoline]	0%	–	–	Mortality rate (%), 0.5mg test cpd/10 cockroaches/bottle (cockroach larvae): 90%; Mortality rate (%), 1mg test cpd/10 cockroaches/bottle (cockroach larvae): 100%
CC(C)c1ccccc1OCCNc1ncnc2ccccc12 [Compound B, 4-{N-[2-(2-isopropylphenoxy)ethyl]amino}quinazoline, reference compound]	–	iii (all fish dead at 0.5 ppm)	–	–
Cc1cccc(OCCN(C)c2ncnc3ccccc23)c1 [compound 20, 4-{N-methyl-N-[2-(3-methylphenoxy)ethyl]amino}quinazoline]	–	–	–	Mortality rate (%), 0.5mg test cpd/10 cockroaches/bottle (cockroach larvae): 90%; Mortality rate (%), 1mg test cpd/10 cockroaches/bottle (cockroach larvae): 100%
CCCN(CCOc1ccc(Cl)cc1C)c1ncnc2ccccc12 [compound 39, 4-{N-[2-(4-chloro-2-methylphenoxy)ethyl]-N-propylamino}quinazoline]	0%	ii (all fish dead at 10 ppm but alive at 0.5 ppm)	9%	Mortality rate (%), 0.5mg test cpd/10 cockroaches/bottle (cockroach larvae): 85%; Mortality rate (%), 1mg test cpd/10 cockroaches/bottle (cockroach larvae): 100%
CC(C)c1ccccc1OCCN(c1ncnc2ccccc12)C1CCCCC1 [compound 46, 4-{N-cyclohexyl-N-[2-(2-isopropylphenoxy)ethyl]amino}quinazoline]	–	–	0%	–
CCCN(CCOc1cc(C(C)C)ccc1C)c1ncnc2ccccc12 [compound 48, 4-{N-[2-(5-isopropyl-2-methylphenoxy)ethyl]-N-propylamino}quinazoline]	0%	–	–	–
CN(CCOc1ccccc1Cl)c1ncnc2ccccc12 [compound 11, 4-{N-[2-(2-chlorophenoxy)ethyl]-N-methylamino}quinazolone]	–	–	3%	–
CC(C)c1ccccc1OCCN(C)c1ncnc2ccccc12.O=C(O)C(=O)O [compound 54, 4-{N-[2-(2-isopropylphenoxy)ethyl]-N-methylamino}quinazoline oxalate]	–	–	0%	–

SMILES	Diseased area (%) (Sphaerotheca fuliginea)	Toxicity ranking (guppies)	Diseased area (%) (Phytophthora infestans)	further results
CCCCN(CCOc1cc(C(C)C)ccc1C)c1ncnc2ccccc12 [compound 49, 4-{N-butyl-N-[2-(5-isopropyl-2-methylphenoxy)ethyl]amino}quinazoline]	0%	–	–	–
Cc1ccccc1OCCN(c1ncnc2ccccc12)C(C)C [compound 7, 4-{N-isopropyl-N-[2-(2-methylphenoxy)ethyl]amino}quinazoline]	0%	ii (all fish dead at 10 ppm but alive at 0.5 ppm)	–	–
CN(CCOc1ccccc1)c1ncnc2ccccc12 [Compound No. 4, 4-[N-methyl-N-(2-phenoxyethyl)amino]quinazoline]	–	–	–	Mortality rate (%), 0.5mg test cpd/10 cockroaches/bottle (cockroach larvae): 85%; Mortality rate (%), 1mg test cpd/10 cockroaches/bottle (cockroach larvae): 100%
COc1ccccc1OCCN(C)c1ncnc2ccccc12 [compound 16, 4-{N-[2-(2-methoxyphenoxy)ethyl]-N-methylamino}quinazoline]	–	–	13%	–
CCCCN(CCOc1ccccc1C(C)C)c1ncnc2ccccc12 [compound 28, 4{N-butyl-N-[2-(2-isopropylphenoxy)ethyl]amino}quinazoline]	0%	–	–	–
Cc1cc(Cl)ccc1OCCN(c1ncnc2ccccc12)C(C)C [compound 40, 4-{N-[2-(4-chloro-2-methylphenoxy)ethyl]-N-isopropylamino}quinazoline]	0%	i (all fish alive at 10 ppm)	–	–
CCCN(CCOc1ccccc1C(C)C)c1ncnc2ccccc12 [compound 24, 4-{N-[2-(2-isopropylphenoxy)ethyl]-N-propylamino}quinazoline]	0%	–	–	–
Cc1ccccc1OCCNc1ncnc2ccccc12 [Compound A, 4-{N-[2-(2-methylphenoxy)ethyl]amino}quinazoline, reference compound]	–	iii (all fish dead at 0.5 ppm)	–	–
CCCCCCc1ccc(OCCN(C)c2ncnc3ccccc23)c(C)c1 [compound 57, 4-{N-[2-(4-hexyl-2-methylphenoxy)ethyl]-N-methylamino}quinazoline]	–	–	–	Mortality rate (%), 0.5mg test cpd/10 cockroaches/bottle (cockroach larvae): 90%; Mortality rate (%), 1mg test cpd/10 cockroaches/bottle (cockroach larvae): 100%; pest or weed control at 500 ppm [1]: 100%; Extent of ingestion [1]: - to ±; Extent of ingestion [2]: ±
Cc1ccccc1OCCN(Cc1ccccc1)c1ncnc2ccccc12 [compound 3, 4-{N-benzyl-N-[2-(2-methylphenoxy)ethyl]amino}quinazoline]	0%	i (all fish alive at 10 ppm)	11%	–
Cc1cc(Cl)ccc1OCCN(Cc1ccccc1)c1ncnc2ccccc12 [compound 42, 4-{N-benzyl-N-[2-(4-chloro-2-methylphenoxy)ethyl]amino}quinazoline]	–	–	–	pest or weed control at 500 ppm [1]: 60%; Extent of ingestion [1]: ± to +
CCCCN(CCOc1ccc(C)cc1C)c1ncnc2ccccc12 [compound 35, 4-{N-butyl-N-[2-(2,4-dimethylphenoxy)ethyl]amino}quinazoline]	0%	ii (all fish dead at 10 ppm but alive at 0.5 ppm)	–	–
CCCN(CCOc1ccccc1C)c1ncnc2ccccc12 [compound 6, 4-{N-[2-(2-methylphenoxy)ethyl]-N-propylamino}quinazoline]	0%	–	0%	–
Cc1ccc(OCCN(Cc2ccccc2)c2ncnc3ccccc23)c(C)c1 [compound 36, 4-{N-benzyl-N-[2-(2,4-dimethylphenoxy)ethyl]amino}quinazoline]	0%	ii (all fish dead at 10 ppm but alive at 0.5 ppm)	–	–
CC(C)=CCN(CCOc1ccccc1C(C)C)c1ncnc2ccccc12 [compound 53, 4-{N-[2-(2-isopropylphenoxy)ethyl]-N-(3-methyl-2-butenyl)amino}quinazoline]	–	ii (all fish dead at 10 ppm but alive at 0.5 ppm)	0%	–
CCC(C)c1ccccc1OCCN(C)c1ncnc2ccccc12 (centres unmarked) [compound 12, 4-{N-methyl-N-[2-(2-sec-butylphenoxy)ethyl]amino}quinazoline]	–	–	15%	Mortality rate (%), 0.5mg test cpd/10 cockroaches/bottle (cockroach larvae): 90%; Mortality rate (%), 1mg test cpd/10 cockroaches/bottle (cockroach larvae): 100%

From patent publication US4304778A, “4-Aminoquinazoline derivatives having fungicidal, anti-insect and acaricidal properties” (Sankyo Company Limited, priority 1978, dated 1981)
